Experimental data from US11001745B2, “Hydrocarbon recovery composition, method, and system” (THE SASKATCHEWAN RESEARCH COUNCIL, priority 2016, dated 2021).

Key:
[1] = Thermal stability; assay type: physicochemical; settings: 200° C.
[2] = Dissolution of asphaltenes; assay type: physicochemical
[3] = room temperature; cited from earlier work

Thermal stability [1] | Asphaltenes dissolve in the compound [2] | SMILES | Solubility in water [3]
stable for at least one week | dissolve | CCCCCCCCN1CCCC1=O [NOP, N-octyl-2-pyrrolidone] | about 1 g/L
– | dissolve | O=C1CCCN1C1CCCCC1 [NCHP, N-cyclohexyl-2-pyrrolidone] | –
– | dissolve | CCCCCCCCCCCCN1CCCC1=O [NDDP, N-dodecyl-2-pyrrolidone] | –
